Assay results published in patent US9861117B2 (priority 2009, dated 2018).
Where two headings read alike, the source gives them in different places.

What was measured:
Clostridium perfringens [1] = type: cell-based
[2] = Diarrhoea score of weaned piglets fed supplemented feed; conditions: 1000 ppm in feed; for Diarrhoea score: average over the total period
Clostridium perfringens [3] = type: in vivo; conditions: 0-42 day, infected broilers, 1000 ppm in feed
Clostridium perfringens [4] = type: in vivo, broilers; design: Clostridium perfringens counts in jejunum: unit not given here; conditions: 1000 ppm in feed; for Clostridium perfringens counts in jejunum: day 13 of age
[5] = Recovery in duodenum, jejunum and ileum of broilers fed supplemented feed; type: in vivo; conditions: 1000 ppm in feed, day 43 of age, FIG. 3
Text: Broilers were offered feed supplemented with 1000 ppm of either dodecanoic acid or ethyl dodecanoate throughout the trial. At day 43 of age, 12 birds per treatment were sacrificed and the content of the duodenum, jejunum and ileum was harvested and analysed for levels of ethyl dodecanoate and dodecanoic acid. In FIG. 3 the mean levels are depicted.

[6] = Challenged broilers (10^8 CFU C. perfringens day 9-11)
[7] = Overall (challenged and non-challenged)
[8] = Example 1, FIG. 1, all tested levels, broth, 8 hours

Compound	Inhibition of growth of Clostridium perfringens (OD) (Clostridium perfringens [1]; Example 2, FIG. 2, at 67 ppm)	Diarrhoea score [2]	Feed conversion ratio (Clostridium perfringens [3])	Feed intake (Clostridium perfringens [3])	Mortality (Clostridium perfringens [3])	Weight gain (Clostridium perfringens [3])	Clostridium perfringens counts in jejunum (Clostridium perfringens [4]; [6])	Clostridium perfringens counts in jejunum (Clostridium perfringens [4]; Non-challenged broilers)	Clostridium perfringens counts in jejunum (Clostridium perfringens [4]; [7])	Level recovered in the jejunum [5]	Inhibition of growth of Clostridium perfringens (OD) (Clostridium perfringens [1]; [8])	Inhibition of growth of Clostridium perfringens (OD) (Clostridium perfringens [1]; Example 2, FIG. 2, lowest inclusion level of treatment)	Effect on diarrhoea (in words) ([2]; versus control)	Effect on Clostridium counts in jejunum (in words) (Clostridium perfringens [4]; broilers, versus dodecanoic acid)
CCCCCCCCCCCC(=O)O [dodecanoic acid, reference compound]	not as effective	46.64 ab	1.636	104.3 g/day	8.333%	63.78 g/day	2.122	1.418	1.770					
CCCCCCCCCCCC(=O)OCC [ethyl dodecanoate]		42.41 b	1.626	106.5 g/day	4.621%	65.5 g/day	0.977	1.048	1.013	higher than the free fatty acid	complete inhibition	complete inhibition	significantly reduce diarrhoea	overall significant reduction
CCCCCCCC(=O)OC [methyl octanoate]											nearly the same results			
